These results are taken from PMC12567500, “Activity-Based Profiling of Papain-like Cysteine Proteases During Late-Stage Leaf Senescence in Barley” (Plants, 2025).

One assay deals with PLCPs from maize leaves. Set-up: method as in PMID 31114592. The settings on record: ion-exchange chromatography; cited from earlier work.
The target of assay [1] is R-AMC cleaving aminopeptidase activity (Fr. No 26–27 of barley leaf extract). The assay is described as follows: Inhibition of R-AMC cleaving aminopeptidase activity, pooled ion-exchange fractions Nos. 26–27. The settings on record: for IC50: substrate R-AMC 25 µM, Fr. No 26–27, senescing leaves six weeks after anthesis, pH 5.5, read-out: Effect/IC50; for Inhibition of R-AMC cleaving aminopeptidase activity (in words): substrate R-AMC, earlier eluting fractions. The assay is classed as biochemical, barley (Hordeum vulgare L.).

Assay [2] deals with aleurain (a cysteine aminopeptidase). Set-up: method as in PMID 12354950. The settings on record: cited from earlier work.
Assay [3] concerns PLCPs (cathepsin B- and L-like activity, Fr. No 35–36 of barley leaf extract). As to the kind of experiment: Inhibition of Z-FR-AMC cleavage, pooled ion-exchange fractions Nos. 35–36. The assay is classed as biochemical, barley (Hordeum vulgare L.). The conditions noted are these: for IC50: substrate Z-FR-AMC 25 µM, Fr. No 35–36, senescing leaves six weeks after anthesis, pH 5.5, read-out: Effect/IC50. The protocol:
(§1) Soluble proteins from barley leaves were extracted by homogenizing 10 g of leaf powder in 200 mL of ice-cold 50 mM Tris-HCl buffer (pH 7.4). Homogenates were filtered through one layer of Miracloth (Calbiochem, San Diego, CA, USA), centrifuged at 20,000× g for 20 min at 4 °C, and the supernatants were then filtered through a 0.45 μm filter (Avantor, Radnor, PA, USA). PLCPs were separated using anion-exchange chromatography on a DEAE-Sepharose CL-6B column (volume 6 mL) equilibrated with 0.05 M Tris-HCl buffer (pH 7.4). The column was washed with equilibration buffer, and bound material was eluted with a NaCl gradient (0.0–1.0 M). Collected fractions (1 mL each) were kept in an ice bath and used for measurements of peptidase activity and protein content. Fractions with active cysteine proteases were pooled. To reduce the NaCl concentration and exchange the buffer to 0.1 M Na-citrate (pH 5.5), three sequential filtration steps using 10 kDa ultrafiltration 15 mL units (Merck Millipore Ltd., Carrigtwohill, County Cork, Ireland) were utilized, and the samples were incubated with gentle shaking with 10 µM DCG-04 in the presence of 2 mM DTT for 3 h at 37 °C. […] The intensity of DCG-04-labeled barley cysteine proteases was determined in our previous experiments using streptavidin-horseradish peroxidase. After the incubation, proteins were rapidly precipitated using 80% acetone under inclusion of 100 mM NaCl.
(§2) Fluorogenic substrates Z-FR-AMC to determine cathepsin B- and L-like activity, and Z-RR-AMC to determine cathepsin B-like activity, were used. These substrates show fluorescence when AMC is released as a consequence of the hydrolysis of the Arg-AMC bond. The emitted fluorescence was detected with a SpectraMax M2 microplate reader (Molecular Devices, San Jose, CA, USA) with λex = 360 nm and λem = 460 nm. Before use, the substrates were dissolved in DMSO at 10 mM and stored at −20 °C. The measurements were made in 96-well black microplates (PerkinElmer Inc., Waltham, MA, USA), and each well contained a 100 μL final volume of 0.1 M Na-citrate buffer (pH 5.5) with DTT (2 mM), an aliquot of extract or chromatographic fraction, and fluorogenic substrate (25 μM). The reaction was initiated by the addition of the substrate. The final concentration of DMSO in microplate wells was 1% in all assays. The assays were conducted at room temperature, and relative fluorescence readings were recorded over a period of 10 min.
(§3) For the inhibition assays, an inhibitor (1 µL of stock solution of E-64 or bestatin in DMSO, or stock solution of 1,10-phenanthroline in ethanol) at different concentrations was added to the reaction mixture. […]

The subject of assay [4] is PLCPs (cathepsin B-like activity, Fr. No 35–36 of barley leaf extract). The assay is described as follows: Inhibition of Z-RR-AMC cleavage, pooled ion-exchange fractions Nos. 35–36. The conditions noted are these: for IC50: substrate Z-RR-AMC 25 µM, Fr. No 35–36, senescing leaves six weeks after anthesis, pH 5.5, read-out: Effect/IC50. The assay is classed as biochemical, barley (Hordeum vulgare L.). The protocol: as §1, §2, §3

The test system of assay [5] is PLCPs (pooled fractions with active cysteine proteases). The assay is described as follows: DCG-04 labeling of pooled active fractions, remaining PLCP activity checked with Z-FR-AMC and Z-RR-AMC. The conditions noted are these: 10 µM DCG-04, 2 mM DTT, 3 h at 37 °C, 0.1 M Na-citrate pH 5.5. The assay is classed as biochemical, barley (Hordeum vulgare L.). The method, then:
as §1, with “After the incubation, proteins were rapidly precipitated using 80% acetone under inclusion of 100 mM NaCl.” left out

As to `CC(C)C[C@H](NC(=O)[C@H]1O[C@@H]1C(=O)O)C(=O)NCCCCN=C(N)N` (relative stereo) [E-64, trans-epoxysuccinyl-L-leucylamido-(4-guanidino)butane], the “Sensitivity of the single Z-FR-AMC cleavage activity peak to inhibition (in words)” value in the assay on PLCPs from maize leaves is listed as “sensitive”. Besides, the values for the IC50 in assay [1], in assay [3] and in assay [4] were more than 25 µM, 0.0153 ± 0.0041 µM and 0.0091 ± 0.0022 µM, respectively. Moreover, the “Inhibition of aleurain activity (in words)” value in assay [2] was “inhibited”. Besides, the “Inhibition of the activity of the peak fractions (in words)” value in assay [3] (substrate Z-FR-AMC, peak fractions of DEAE-Sepharose) is on record as “completely inhibited”; in assay [4] (substrate Z-RR-AMC, peak fractions of DEAE-Sepharose), “completely inhibited”.

On to `c1cnc2c(c1)ccc1cccnc12` [1,10-Phenanthroline, 1,10-phenanthroline], for which the figures for the IC50 in assay [1], in assay [3] and in assay [4] were 68.5 ± 12.2 µM, more than 5000 µM and more than 5000 µM, respectively. Further, the “Inhibition of R-AMC cleaving aminopeptidase activity (in words)” value in assay [1] was “inhibited”.

Take `CC(C)C[C@H](NC(=O)[C@@H](O)[C@H](N)Cc1ccccc1)C(=O)O` [Bestatin, bestatin]: the IC50 in assay [1] was 247 ± 38 µM; in assay [3], more than 1000 µM; in assay [4], more than 1000 µM. Besides, in assay [1], the “Inhibition of R-AMC cleaving aminopeptidase activity (in words)” value is on record as “inhibited”.

For `CCOC(=O)[C@H]1O[C@@H]1C(=O)N[C@@H](CC(C)C)C(=O)N[C@@H](Cc1ccc(O)cc1)C(=O)NCCCCCC(=O)N[C@@H](CCCCNC(=O)CCCC[C@@H]1SC[C@@H]2NC(=O)N[C@@H]21)C(N)=O` [DCG-04], in assay [5], the “Remaining PLCP activity after incubation with probe” value is reported as “No remaining PLCP activity”.
